Reference: PubChem BioAssay AID1259407 (Chemical Carcinogenesis Research Information System (CCRIS), 2018)
The source made the active and inactive calls. The rule behind the calls is not given here.

System: CCRIS mutagenicity, Ames/micronucleus/aberration tests
Assay: CCRIS mutagenicity studies
[1] = Test System: AMES SALMONELLA TYPHIMURIUM, Strain/Indicator: TA98, Metabolic Activation: NONE, Method: STANDARD PLATE
[2] = Test System: AMES SALMONELLA TYPHIMURIUM, Strain/Indicator: TA98, Metabolic Activation: RAT, LIVER, S-9, AROCLOR 1254, Method: STANDARD PLATE
[3] = Test System: AMES SALMONELLA TYPHIMURIUM, Strain/Indicator: TA100, Metabolic Activation: NONE, Method: STANDARD PLATE
[4] = Test System: AMES SALMONELLA TYPHIMURIUM, Strain/Indicator: TA100, Metabolic Activation: RAT, LIVER, S-9, AROCLOR 1254, Method: STANDARD PLATE
[5] = Test System: AMES SALMONELLA TYPHIMURIUM, Strain/Indicator: TA100, Metabolic Activation: NONE

## N#CC(Br)Br
End Point: In vivo micronucleus, Test System: Peripheral blood normochromatic erythrocytes, Species: Mouse, Strain/Sex: B6C3F1/ Female, Route: Oral
  mutagenic call: inactive; negative
End Point: In vivo micronucleus, Test System: Peripheral blood normochromatic erythrocytes, Species: Mouse, Strain/Sex: B6C3F1/ Male, Route: Oral
  mutagenic call: inactive; negative
[1]
  mutagenic call: inactive; negative
[2]
  mutagenic call: inactive; negative
Test System: AMES SALMONELLA TYPHIMURIUM, Strain/Indicator: TA100, Metabolic Activation: NONE, Method: FLUCTUATION TEST
  mutagenic call: inactive; negative
[3]
  mutagenic call: inactive; negative
Test System: AMES SALMONELLA TYPHIMURIUM, Strain/Indicator: TA100, Metabolic Activation: RAT, LIVER, S-9, AROCLOR 1254, Method: FLUCTUATION TEST
  mutagenic call: inactive; negative
[4]
  mutagenic call: inactive; negative
Test System: AMES SALMONELLA TYPHIMURIUM, Strain/Indicator: TA1535, Metabolic Activation: NONE, Method: STANDARD PLATE
  mutagenic call: inactive; negative
Test System: AMES SALMONELLA TYPHIMURIUM, Strain/Indicator: TA1535, Metabolic Activation: RAT, LIVER, S-9, AROCLOR 1254, Method: STANDARD PLATE
  mutagenic call: inactive; negative
Test System: Ames Salmonella typhimurium, Strain/Indicator: TA97, Metabolic Activation: Hamster, Liver, S-9, Aroclor 1254 (10%), Method: Preincubation
  mutagenic call: active; positive
Test System: Ames Salmonella typhimurium, Strain/Indicator: TA97, Metabolic Activation: Hamster, Liver, S-9, Aroclor 1254 (30%), Method: Preincubation
  mutagenic call: inactive; negative
Test System: Ames Salmonella typhimurium, Strain/Indicator: TA97, Metabolic Activation: None, Method: Preincubation
  mutagenic call: active; positive
Test System: Ames Salmonella typhimurium, Strain/Indicator: TA97, Metabolic Activation: Rat, Liver, S-9, Aroclor 1254 (10%), Method: Preincubation
  mutagenic call: active; positive
Test System: Ames Salmonella typhimurium, Strain/Indicator: TA97, Metabolic Activation: Rat, Liver, S-9, Aroclor 1254 (30%), Method: Preincubation
  mutagenic call: inactive; negative
Test System: Ames Salmonella typhimurium, Strain/Indicator: TA98, Metabolic Activation: Hamster, Liver, S-9, Aroclor 1254 (10%), Method: Preincubation
  mutagenic call: inactive; negative
Test System: Ames Salmonella typhimurium, Strain/Indicator: TA98, Metabolic Activation: Hamster, Liver, S-9, Aroclor 1254 (10 and 30%), Method: Preincubation
  mutagenic call: inactive; negative
Test System: Ames Salmonella typhimurium, Strain/Indicator: TA98, Metabolic Activation: None, Method: Preincubation
  mutagenic call: inactive; negative
Test System: Ames Salmonella typhimurium, Strain/Indicator: TA98, Metabolic Activation: Rat, Liver, S-9, Aroclor 1254 (10%), Method: Preincubation
  mutagenic call: inactive; negative
Test System: Ames Salmonella typhimurium, Strain/Indicator: TA98, Metabolic Activation: Rat, Liver, S-9, Aroclor 1254 (10 and 30%), Method: Preincubation
  mutagenic call: inactive; negative
Test System: Ames Salmonella typhimurium, Strain/Indicator: TA100, Metabolic Activation: Hamster, Liver, S-9, Aroclor 1254 (30%), Method: Preincubation
  mutagenic call: inactive; negative
Test System: Ames Salmonella typhimurium, Strain/Indicator: TA100, Metabolic Activation: Rat, Liver, S-9, Aroclor 1254 (10%), Method: Preincubation
  mutagenic call: inactive; negative
Test System: Ames Salmonella typhimurium, Strain/Indicator: TA1535, Metabolic Activation: None, Method: Preincubation
  mutagenic call: inactive; negative
Test System: Ames Salmonella typhimurium, Strain/Indicator: TA1535, Metabolic Activation: Rat, Liver, S-9, Aroclor 1254 (30%), Method: Preincubation
  mutagenic call: inactive; negative
Test System: Ames Salmonella typhimurium, Strain/Indicator: TA1537, Metabolic Activation: Hamster, Liver, S-9, Aroclor 1254 (30%), Method: Preincubation
  mutagenic call: inactive; negative
Test System: Ames Salmonella typhimurium, Strain/Indicator: TA1537, Metabolic Activation: None, Method: Preincubation
  mutagenic call: inactive; negative
Test System: Ames Salmonella typhimurium, Strain/Indicator: TA1537, Metabolic Activation: Rat, Liver, S-9, Aroclor 1254 (10%), Method: Preincubation
  mutagenic call: inactive; negative
Test System: Ames Salmonella typhimurium, Strain/Indicator: TA1538, Metabolic Activation: None, Method: Preincubation
  mutagenic call: inactive; negative
Test System: E. coli, Strain/Indicator: WPM uvrA/pKM101, Metabolic Activation: Hamster, Liver, S-9, Aroclor 1254 (10%), Method: Preincubation
  mutagenic call: active; positive
Test System: E. coli, Strain/Indicator: WPM uvrA/pKM101, Metabolic Activation: None, Method: Preincubation
  mutagenic call: inactive; negative
Test System: E. coli, Strain/Indicator: WPM uvrA/pKM101, Metabolic Activation: Rat, Liver, S-9, Aroclor 1254 (10%), Method: Preincubation
  mutagenic call: inactive; negative

## Oc1ccc2ccc3[nH]c4ccc5ccccc5c4c3c2c1
[1]
  mutagenic call: active; positive
Test System: AMES SALMONELLA TYPHIMURIUM, Strain/Indicator: TA98, Metabolic Activation: RAT, LIVER, S-9, 3-METHYLCHOLANTHRENE, Method: STANDARD PLATE
  mutagenic call: active; positive
[3]
  mutagenic call: active; positive
Test System: AMES SALMONELLA TYPHIMURIUM, Strain/Indicator: TA100, Metabolic Activation: RAT, LIVER, S-9, 3-METHYLCHOLANTHRENE, Method: STANDARD PLATE
  mutagenic call: active; positive
Test System: AMES SALMONELLA TYPHIMURIUM, Strain/Indicator: TM677, Metabolic Activation: NONE, Method: PREINCUBATION
  mutagenic call: inactive; negative
Test System: AMES SALMONELLA TYPHIMURIUM, Strain/Indicator: TM677, Metabolic Activation: RAT, LIVER, S-9, 3-METHYLCHOLANTHRENE (1%), Method: PREINCUBATION
  mutagenic call: active; positive
Test System: AMES SALMONELLA TYPHIMURIUM, Strain/Indicator: TM677, Metabolic Activation: RAT, LIVER, S-9, 3-METHYLCHOLANTHRENE (10%), Method: PREINCUBATION
  mutagenic call: active; positive
Test System: AMES SALMONELLA TYPHIMURIUM, Strain/Indicator: TM677, Metabolic Activation: RAT, LIVER, S-9, AROCLOR 1254 (10%), Method: PREINCUBATION
  mutagenic call: active; positive

## CC(C)CCC[C@@H](C)[C@H]1CC[C@H]2[C@@H]3CC=C4C[C@@H](O)CC[C@]4(C)[C@H]3CC[C@]12C
Test System: CHINESE HAMSTER V-79, Strain/Indicator: V-79/OUABAIN, Metabolic Activation: NONE
  mutagenic call: inactive; negative

## Oc1ccc2ccc3c4ccccc4cc4ccc1c2c43
Test System: AMES SALMONELLA TYPHIMURIUM, Strain/Indicator: TA97, Metabolic Activation: RAT, LIVER, S-9, AROCLOR 1254, Method: STANDARD PLATE
  mutagenic call: active; positive
[1]
  mutagenic call: active; positive
[2]
  mutagenic call: active; positive
[3]
  mutagenic call: active; positive
[4]
  mutagenic call: active; positive
Test System: AMES SALMONELLA TYPHIMURIUM, Strain/Indicator: TA1537, Metabolic Activation: RAT, LIVER, S-9, AROCLOR 1254, Method: STANDARD PLATE
  mutagenic call: active; positive
Test System: CHINESE HAMSTER V-79, Strain/Indicator: V-79/8-AZAGUANINE, Metabolic Activation: NONE, Method: STANDARD PLATE
  mutagenic call: active; positive

## c1ccc([C@H]2CO2)cc1
[5]
  mutagenic call: active; positive
[3]
  mutagenic call: active; positive

## CC(F)(Cl)Cl
End Point: IN VIVO MICRONUCLEUS, Test System: BONE MARROW, Species: RAT, Strain/Sex: SPRAGUE-DAWLEY/FEMALE, Route: INHALATION
  mutagenic call: inactive; negative
End Point: IN VIVO MICRONUCLEUS, Test System: BONE MARROW, Species: RAT, Strain/Sex: SPRAGUE-DAWLEY/MALE, Route: INHALATION
  mutagenic call: active; positive

## COC(=O)C(N)Cc1ccc(Cl)cc1 (configuration not stated)
Test System: AMES SALMONELLA TYPHIMURIUM, Strain/Indicator: TA98, Metabolic Activation: NONE
  mutagenic call: inactive; negative
[5]
  mutagenic call: inactive; negative
Test System: AMES SALMONELLA TYPHIMURIUM, Strain/Indicator: TA1535, Metabolic Activation: NONE
  mutagenic call: inactive; negative
Test System: AMES SALMONELLA TYPHIMURIUM, Strain/Indicator: TA1537, Metabolic Activation: NONE
  mutagenic call: inactive; negative
Test System: E. COLI, Strain/Indicator: AB2462 UVRA, Metabolic Activation: NONE, Method: SPOT TEST
  mutagenic call: inactive; negative
Test System: E. COLI, Strain/Indicator: WP6 POLA, Metabolic Activation: NONE, Method: SPOT TEST
  mutagenic call: inactive; negative

## Cn1c(N)nc2ccc(C#N)cc21
Test System: AMES SALMONELLA TYPHIMURIUM, Strain/Indicator: TA98, Metabolic Activation: RAT, LIVER, S-9, AROCLOR 1254, Method: PREINCUBATION
  mutagenic call: active; positive

## NC(=O)c1ccc(N)nc1
Test System: CHINESE HAMSTER OVARY, Strain/Indicator: CHO/6-THIOGUANINE, Metabolic Activation: NONE
  mutagenic call: inactive; negative
Test System: CHINESE HAMSTER OVARY, Strain/Indicator: CHO/6-THIOGUANINE, Metabolic Activation: RAT, LIVER, S-9
  mutagenic call: inactive; negative
Test System: CHINESE HAMSTER OVARY, Strain/Indicator: CHO/OUABAIN, Metabolic Activation: NONE
  mutagenic call: inactive; negative
Test System: CHINESE HAMSTER OVARY, Strain/Indicator: CHO/OUABAIN, Metabolic Activation: RAT, LIVER, S-9
  mutagenic call: inactive; negative
